# Test results from ChEMBL document CHEMBL1201862, “PubChem BioAssay data set” (2004).
# Active and inactive are the calls of the source.
# What was measured:
# Protein skinhead-1 = target: T1, Protein skinhead-1 (Caenorhabditis elegans, UniProt P34707); type: functional
# T1 sequence (P34707 whole entry): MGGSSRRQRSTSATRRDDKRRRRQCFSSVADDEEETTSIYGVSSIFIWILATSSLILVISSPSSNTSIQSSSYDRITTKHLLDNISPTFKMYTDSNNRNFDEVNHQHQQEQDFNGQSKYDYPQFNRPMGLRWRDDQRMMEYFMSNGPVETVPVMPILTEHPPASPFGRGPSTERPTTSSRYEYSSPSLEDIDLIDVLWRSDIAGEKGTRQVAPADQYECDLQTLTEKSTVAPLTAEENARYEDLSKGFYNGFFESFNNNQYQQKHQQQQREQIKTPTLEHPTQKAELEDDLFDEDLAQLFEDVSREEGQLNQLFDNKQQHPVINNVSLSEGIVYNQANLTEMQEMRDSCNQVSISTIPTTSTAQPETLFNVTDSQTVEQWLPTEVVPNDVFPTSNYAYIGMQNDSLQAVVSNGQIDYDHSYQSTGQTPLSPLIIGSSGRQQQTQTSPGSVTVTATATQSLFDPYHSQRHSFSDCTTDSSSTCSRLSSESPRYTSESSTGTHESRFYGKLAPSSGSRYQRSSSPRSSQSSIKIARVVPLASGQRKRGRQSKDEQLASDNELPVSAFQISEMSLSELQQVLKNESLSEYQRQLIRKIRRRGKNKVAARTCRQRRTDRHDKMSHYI
# H9c2 = assay: cells; type: functional, cell-based; conditions: Rattus norvegicus, H9c2, Myocardium;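 further: confirmatory concentration-response retest of ultra-high-throughput screening hits for modulation of myocardial damage; cell death induced by hydrogen peroxide oxidative stress; compound pretreatment for 60 min then peroxide exposure for 2 h; potency is for protecting the cells against peroxide damage rather than for killing them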
# [1] = target: T2, Replicative DNA helicase DnaB (Mycobacterium tuberculosis, UniProt P9WMR3); assay: DnaB intein splicing inhibitors, dose response, biochemical, cell-free fluorescence (AID 449749); type: functional
# T2 sequence (P9WMR3 whole entry): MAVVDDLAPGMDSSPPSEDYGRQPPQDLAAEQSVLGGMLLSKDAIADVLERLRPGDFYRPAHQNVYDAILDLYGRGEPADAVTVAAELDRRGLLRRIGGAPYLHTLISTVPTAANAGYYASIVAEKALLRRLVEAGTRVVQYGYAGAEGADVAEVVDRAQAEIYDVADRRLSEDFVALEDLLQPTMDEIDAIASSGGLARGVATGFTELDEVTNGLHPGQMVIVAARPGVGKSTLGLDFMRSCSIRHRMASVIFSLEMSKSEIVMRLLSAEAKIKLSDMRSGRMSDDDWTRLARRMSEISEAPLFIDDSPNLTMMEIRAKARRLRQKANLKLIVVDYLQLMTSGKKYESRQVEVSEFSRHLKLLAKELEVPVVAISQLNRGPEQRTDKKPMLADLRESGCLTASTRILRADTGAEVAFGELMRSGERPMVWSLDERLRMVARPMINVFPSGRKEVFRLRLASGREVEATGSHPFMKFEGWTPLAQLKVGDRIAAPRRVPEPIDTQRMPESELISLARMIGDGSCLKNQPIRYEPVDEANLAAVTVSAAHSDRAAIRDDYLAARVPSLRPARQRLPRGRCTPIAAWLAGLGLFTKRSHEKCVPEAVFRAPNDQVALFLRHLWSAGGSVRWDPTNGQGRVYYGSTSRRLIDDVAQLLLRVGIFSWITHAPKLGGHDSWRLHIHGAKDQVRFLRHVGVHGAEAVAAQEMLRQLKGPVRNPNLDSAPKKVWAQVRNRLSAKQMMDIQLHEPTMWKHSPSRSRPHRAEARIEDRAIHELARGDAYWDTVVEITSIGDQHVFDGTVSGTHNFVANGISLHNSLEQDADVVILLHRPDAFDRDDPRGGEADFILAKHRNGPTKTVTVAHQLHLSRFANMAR
# Protein RecA = target: T3, Protein RecA (Mycobacterium tuberculosis, UniProt P9WHJ3); assay: Fluorescence Cell-Free Homogeneous Dose Retest to Identify Inhibitors of RecA-Intein Splicing Activity. [Related pubchem assays (depositor defined):AID2097, AID2223, AID489010, AID492950]; type: functional
# T3 sequence (P9WHJ3 whole entry): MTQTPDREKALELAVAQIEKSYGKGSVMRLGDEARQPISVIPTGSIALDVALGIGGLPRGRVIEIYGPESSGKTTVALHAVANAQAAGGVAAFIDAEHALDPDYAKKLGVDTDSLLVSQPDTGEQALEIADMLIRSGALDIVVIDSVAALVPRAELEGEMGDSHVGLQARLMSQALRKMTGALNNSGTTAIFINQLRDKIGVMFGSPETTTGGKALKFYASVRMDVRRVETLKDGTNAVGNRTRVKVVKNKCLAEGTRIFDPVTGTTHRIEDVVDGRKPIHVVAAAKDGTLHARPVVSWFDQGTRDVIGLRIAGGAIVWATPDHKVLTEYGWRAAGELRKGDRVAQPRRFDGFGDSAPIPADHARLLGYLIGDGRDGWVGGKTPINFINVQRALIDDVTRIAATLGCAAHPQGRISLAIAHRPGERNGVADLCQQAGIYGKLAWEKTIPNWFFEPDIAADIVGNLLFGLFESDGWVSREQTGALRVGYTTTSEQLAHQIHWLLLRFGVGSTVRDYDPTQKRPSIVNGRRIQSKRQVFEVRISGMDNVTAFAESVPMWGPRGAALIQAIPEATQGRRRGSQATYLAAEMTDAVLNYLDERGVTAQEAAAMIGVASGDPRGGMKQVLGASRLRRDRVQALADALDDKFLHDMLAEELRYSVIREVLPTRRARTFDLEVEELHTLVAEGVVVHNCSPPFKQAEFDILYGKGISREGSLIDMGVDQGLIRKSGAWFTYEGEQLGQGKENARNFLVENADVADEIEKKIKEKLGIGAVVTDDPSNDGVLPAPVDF
# [2] = HIV-1 AD8 envelope cell-cell fusion blockers – cherry-pick, dose response (AID 652062); type: functional, cell-based;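 further: luciferase signal from cell-cell fusion driven by HIV-1 clade B AD8 Env; potency is for inhibitors of fusion seen as a drop in luminescence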
# [3] = blockers of HIV-1 ZM109 envelope-driven cell-cell fusion – HeLa effector, CEM target cells, luciferase, cherry-pick, dose response (AID 652058); type: functional, cell-based;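 further: luciferase signal from HIV-1 Env mediated cell-cell fusion of effector and target cells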
# Cytochrome P450 3A4 = Cytochrome P450 3A4 (Homo sapiens, UniProt P08684);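 further: CYP3A4 tested as one member of a cytochrome P450 panel screen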
# Sequence of Cytochrome P450 3A4 (P08684 whole entry): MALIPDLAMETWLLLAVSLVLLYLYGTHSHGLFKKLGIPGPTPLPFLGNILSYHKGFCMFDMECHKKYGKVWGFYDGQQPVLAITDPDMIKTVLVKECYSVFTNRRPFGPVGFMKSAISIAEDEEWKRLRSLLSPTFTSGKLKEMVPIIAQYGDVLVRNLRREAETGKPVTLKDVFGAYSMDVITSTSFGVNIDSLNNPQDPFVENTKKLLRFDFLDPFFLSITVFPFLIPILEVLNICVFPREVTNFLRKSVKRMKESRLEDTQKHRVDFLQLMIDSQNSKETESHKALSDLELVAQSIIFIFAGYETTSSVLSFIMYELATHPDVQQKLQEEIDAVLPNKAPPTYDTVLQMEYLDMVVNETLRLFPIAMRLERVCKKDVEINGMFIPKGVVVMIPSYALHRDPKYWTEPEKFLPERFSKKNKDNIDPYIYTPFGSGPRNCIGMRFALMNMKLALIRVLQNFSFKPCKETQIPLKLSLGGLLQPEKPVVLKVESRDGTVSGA
# Cytochrome P450 2C9 = Cytochrome P450 2C9 (Homo sapiens, UniProt P11712)
# Sequence of Cytochrome P450 2C9 (P11712 whole entry): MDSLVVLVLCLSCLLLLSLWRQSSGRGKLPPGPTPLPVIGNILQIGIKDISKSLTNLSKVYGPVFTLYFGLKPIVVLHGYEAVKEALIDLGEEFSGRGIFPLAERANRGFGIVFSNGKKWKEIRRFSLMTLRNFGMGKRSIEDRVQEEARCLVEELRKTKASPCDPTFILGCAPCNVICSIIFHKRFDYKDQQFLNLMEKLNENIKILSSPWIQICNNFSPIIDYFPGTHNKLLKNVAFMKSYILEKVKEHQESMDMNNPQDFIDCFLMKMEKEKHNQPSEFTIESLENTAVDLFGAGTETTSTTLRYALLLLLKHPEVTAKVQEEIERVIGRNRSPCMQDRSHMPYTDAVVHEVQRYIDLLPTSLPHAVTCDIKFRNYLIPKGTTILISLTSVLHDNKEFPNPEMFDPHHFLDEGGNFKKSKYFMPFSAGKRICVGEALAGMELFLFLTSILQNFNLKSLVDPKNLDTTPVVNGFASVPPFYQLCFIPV
# [4] = target: T4, Rac GTPase-activating protein 1 (Homo sapiens, UniProt Q9H0H5); assay: blockers of MgcRacGAP-driven Rac1 GTP hydrolysis – biochemical, ADP Hunter fluorescence, primary and confirmatory, confirmation (AID 624330); type: functional
# T4 sequence (Q9H0H5 whole entry): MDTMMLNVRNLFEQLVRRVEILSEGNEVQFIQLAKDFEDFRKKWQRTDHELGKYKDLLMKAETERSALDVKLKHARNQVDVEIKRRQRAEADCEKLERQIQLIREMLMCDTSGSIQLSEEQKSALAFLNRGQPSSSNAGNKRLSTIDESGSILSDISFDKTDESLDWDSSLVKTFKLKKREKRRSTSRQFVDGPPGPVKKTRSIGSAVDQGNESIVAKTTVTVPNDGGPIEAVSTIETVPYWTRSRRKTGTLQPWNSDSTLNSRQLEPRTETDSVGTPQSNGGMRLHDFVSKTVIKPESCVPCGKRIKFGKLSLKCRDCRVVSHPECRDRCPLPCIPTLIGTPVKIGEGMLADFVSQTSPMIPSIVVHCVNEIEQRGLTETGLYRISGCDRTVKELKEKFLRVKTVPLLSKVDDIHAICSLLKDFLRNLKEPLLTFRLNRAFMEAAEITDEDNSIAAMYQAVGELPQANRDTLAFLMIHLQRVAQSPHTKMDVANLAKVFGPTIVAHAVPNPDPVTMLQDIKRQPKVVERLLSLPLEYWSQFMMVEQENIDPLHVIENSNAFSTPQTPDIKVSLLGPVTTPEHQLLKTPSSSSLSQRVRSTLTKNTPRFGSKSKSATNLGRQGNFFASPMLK
# H4 = assay: Luminescence Cell-Based Dose Response HTS to Identify Activators of 5'UTR Stem-Loop Driven Prion Protein mRNA Translation in H4 Neuroglioblastoma Cells. [Related pubchem assays: 1829 (Project Summary), 1814 (Primary HTS)]; type: functional; conditions: Homo sapiens
smiles,measurement,setting,value
c1ccc(OCc2nc(-c3cccs3)no2)cc1,IC50,Protein skinhead-1,31.5 µM (active)
COc1ccc(S(=O)(=O)N2CC(O)CC2C(=O)OCc2nc(O)c3c(C)c(C)sc3n2)cc1 (stereo unspecified),IC50,H9c2,31 µM (inactive)
CCCCCCOC(=O)c1ccc(OC(=O)c2cccnc2)cc1,AC50,[1],3.69 µM (active)
same,EC50,Protein RecA,3.58 µM (active)
CCOC(=O)C1CCCN(Cc2nc(N)nc(Nc3ccc(OC)cc3)n2)C1 (stereo unspecified),AC50,[2],27 µM (active)
same,AC50,[3],4.93 µM (active)
COc1ccccc1-c1c(C(F)(F)F)oc2cc(OC(=O)c3cccc([N+](=O)[O-])c3C)ccc2c1=O,AC50,Cytochrome P450 3A4,12.6 µM (inconclusive)
same,AC50,Cytochrome P450 2C9,0.447 µM (inconclusive)
same,IC50,Protein skinhead-1,> 100 µM (inactive)
Fc1ccc(-c2csc(Nc3ccccn3)n2)c(F)c1,IC50,Protein skinhead-1,> 100 µM (inactive)
COc1ccc(NC(=O)COc2cccc3c2CCNC3=O)cc1,IC50,H9c2,> 79 µM (inactive)
CCCNCc1cc(Cl)c(OCC)c(Cl)c1,IC50,Protein skinhead-1,> 100 µM (inactive)
Nc1nc(N)c2[nH]c(S)nc2n1,IC50,[4],163 µM (active)
CC(C)NC(=O)Nc1ccc2c(c1)C(=O)N([C@@H](C)CO)C[C@H](C)[C@H](CN(C)C(=O)Nc1ccc(F)cc1)O2,AC50,[2],58.4 µM (active)
same,AC50,[3],22.4 µM (active)
CCn1c(C)c(C2=CCN(S(=O)(=O)c3ccccc3)CC2)c2ccccc21,IC50,Protein skinhead-1,> 100 µM (inactive)
Cc1nn(Cc2ccc(C(=O)N3CCN(C(=O)c4ccco4)CC3)o2)c(C)c1[N+](=O)[O-],IC50,H9c2,21.9 µM (active)
Cn1c(=O)[nH]c(=O)c2c1nc(NCCc1ccccc1)n2CC(O)COc1ccccc1 (stereo unspecified),IC50,H9c2,> 79 µM (inactive)
Cc1ccc(C(=O)Nc2cccc(C(F)(F)F)c2)cc1NC(=O)c1csc(-c2ccncc2)n1,IC50,H9c2,> 79 µM (inactive)
CCOc1cccc2cc(C(=O)N3CCc4ccccc43)c(=O)oc12,IC50,Protein skinhead-1,> 100 µM (inactive)
C/C(CC(=O)Nc1cc(C)ccn1)=N\NC(=O)c1ccccc1C,AC50,[1],26.8 µM (active)
same,EC50,Protein RecA,6.24 µM (active)
N#C/C(=C\c1ccc(N2CCCCC2)o1)C(=O)Nc1cccc(Br)c1,EC50,H4,0.102 µM (active)
O=C(c1c[nH]c(C(=O)C(Cl)(Cl)Cl)c1)c1ccccc1Br,AC50,[1],6.31 µM (active)
same,EC50,Protein RecA,6.33 µM (active)
Oc1nnc(-c2cccs2)c2ccccc12,IC50,H9c2,19.4 µM (active)
C[C@H](CO)N1C[C@H](C)[C@@H](CN(C)S(=O)(=O)c2cccs2)Oc2ccc(NC(=O)Nc3ccccc3)cc2C1=O,IC50,H9c2,11.9 µM (active)
COCCCn1c(SCC(=O)NC(C)C)nnc1-c1ccccc1,IC50,Protein skinhead-1,> 100 µM (inactive)
CCN(CC)CCN1C(=O)C(O)=C(C(=O)c2cnn(-c3ccccc3)c2C)C1c1ccc(C)o1 (stereo unspecified),IC50,Protein skinhead-1,> 100 µM (inactive)
COc1ccc2nc(O)c(CNC3CCCCC3)cc2c1,IC50,H9c2,46.3 µM (inactive)
O=C(Nc1cc(C(F)(F)F)ccc1N1CCCCC1)C1=COCCO1,IC50,Protein skinhead-1,> 100 µM (inactive)
O=[N+]([O-])c1ccc(Oc2ccc(F)cc2)c2ccncc12,AC50,[1],> 380 µM (inactive)
same,IC50,Protein skinhead-1,> 100 µM (inactive)
same,EC50,Protein RecA,1.4 µM (active)
Clc1ccc(-c2nnsc2SCc2ccccc2)cc1,IC50,Protein skinhead-1,> 100 µM (inactive)
COc1ccc(NC2CCCN(C(=O)CSc3ccccc3)C2)cc1OC (stereo unspecified),IC50,[4],60 µM (active)
Cc1cc(C)n2c(SCc3c(C)noc3C)nnc2n1,IC50,Protein skinhead-1,> 100 µM (inactive)
CC(C)(C)OC(=O)CNC(=O)c1[nH]cnc1C(=O)Nc1ccc(CNC(=O)OC(C)(C)C)cc1,IC50,H9c2,> 79 µM (inactive)
Cc1cccc(NC(=O)c2[nH]cnc2C(=O)NCCCCNC(=O)c2nc[nH]c2C(=O)Nc2cccc(C)c2)c1,IC50,H9c2,> 79 µM (inactive)
CCOC(=O)C1CCN(Cc2c[nH]nc2-c2ccccc2)CC1,IC50,[4],131 µM (active)
COc1ccc(NC(=O)/C(C#N)=C/c2ncc([N+](=O)[O-])n2C)c(OC)c1,AC50,[1],67.5 µM (active)
same,EC50,Protein RecA,15.6 µM (active)
O=C(CCCCCNC(=O)c1ccccc1)N/N=C/c1ccc(O)cc1O,IC50,[4],69.9 µM (active)
Cc1ccc(C)c(N/C([S-])=C(/C(=O)c2ccc(OC(F)F)cc2)[n+]2ccccc2)c1,AC50,[1],36.6 µM (active)
same,EC50,Protein RecA,11.5 µM (active)
Cc1[nH][nH]c(=O)c1C(c1ccc(N(C)C)c(Br)c1)c1c(C)[nH][nH]c1=O,AC50,[1],0.467 µM (active)
same,EC50,Protein RecA,0.274 µM (active)
COc1ccc(C=NNC(=O)c2cc(C)oc2C)cc1O,IC50,[4],107 µM (active)
COC(=O)c1ccc(CSc2ccc3nnc(-c4cccc(F)c4)n3n2)o1,IC50,H9c2,> 79 µM (inactive)
O=C(NCC(=O)N(Cc1cccs1)C(C(=O)NC1CCCCC1)c1ccncc1)c1ccco1 (stereo unspecified),IC50,Protein skinhead-1,> 100 µM (inactive)
O=C1CC(Nc2ccc(N3CCOCC3)cc2)C(=O)N1Cc1ccccc1 (stereo unspecified),IC50,[4],140 µM (active)
